Reference: ChEMBL document CHEMBL4665836, “Overcoming β-Lactam resistance in Pseudomonas aeruginosa using non-canonical tobramycin-based antibiotic adjuvants” (2020)

What was measured:
Type in all cases: functional
Pseudomonas aeruginosa [1] = assay: Potentiation of ceftazidime-induced antibacterial activity against carbapenem-resistant Pseudomonas aeruginosa 86052 clinical isolate assessed as ceftazidime MIC at 8.7 uM by checkerboard assay (reference value: 64 ug/ml)
Pseudomonas aeruginosa [2] = assay: Potentiation of ceftazidime-induced antibacterial activity against carbapenem-resistant Pseudomonas aeruginosa 109084 clinical isolate assessed as ceftazidime MIC at 8.7 uM by checkerboard assay (reference value: 64 ug/ml)
Pseudomonas aeruginosa [3] = assay: Potentiation of ceftazidime-induced antibacterial activity against carbapenem-resistant Pseudomonas aeruginosa PAO200 harboring and mexAB-oprM efflux deficient mutant assessed as ceftazidime MIC at 8.7 uM by checkerboard assay (reference value: 1 ug/ml)
Pseudomonas aeruginosa [4] = assay: Potentiation of ceftazidime-induced antibacterial activity against carbapenem-resistant Pseudomonas aeruginosa 88949 clinical isolate assessed as ceftazidime MIC at 8.7 uM by checkerboard assay (reference value: 64 ug/ml)
Pseudomonas aeruginosa [5] = assay: Potentiation of aztreonam-induced antibacterial activity against carbapenem and colistin-resistant Pseudomonas aeruginosa 101243 clinical isolate assessed as aztreonam MIC at 8.7 uM by checkerboard assay (reference value: 32 ug/ml)
Pseudomonas aeruginosa [6] = assay: Potentiation of ceftazidime-induced antibacterial activity against carbapenem-resistant Pseudomonas aeruginosa PAO750 harboring mexAB-oprM/mexCD-oprJ/mexEF-oprN/mexJK/mexXY/opmH efflux deficient mutant assessed as ceftazidime MIC at 8.7 uM by checkerboard assay (reference value: 0.5 ug/ml)
Pseudomonas aeruginosa [7] = assay: Potentiation of ceftazidime-induced antibacterial activity against carbapenem-resistant Pseudomonas aeruginosa 108590 clinical isolate assessed as ceftazidime MIC at 8.7 uM by checkerboard assay (reference value: 32 ug/ml)
Pseudomonas aeruginosa [8] = assay: Potentiation of aztreonam-induced antibacterial activity against carbapenem-resistant Pseudomonas aeruginosa 264-104354 clinical isolate assessed as aztreonam MIC at 8.7 uM by checkerboard assay (reference value: 32 ug/ml)
Pseudomonas aeruginosa [9] = assay: Potentiation of ceftazidime-induced antibacterial activity against carbapenem-resistant Pseudomonas aeruginosa 260-97103 clinical isolate assessed as ceftazidime MIC at 8.7 uM by checkerboard assay (reference value: 32 ug/ml)
Pseudomonas aeruginosa [10] = assay: Potentiation of ceftazidime-induced antibacterial activity against carbapenem and colistin-resistant Pseudomonas aeruginosa 91433 clinical isolate assessed as ceftazidime MIC at 8.7 uM by checkerboard assay (reference value: 4 ug/ml)
Pseudomonas aeruginosa [11] = assay: Potentiation of aztreonam-induced antibacterial activity against carbapenem-resistant Pseudomonas aeruginosa 262-101856 clinical isolate assessed as aztreonam MIC at 8.7 uM by checkerboard assay (reference value: 32 ug/ml)
Pseudomonas aeruginosa [12] = assay: Potentiation of aztreonam-induced antibacterial activity against carbapenem-resistant Pseudomonas aeruginosa 107092 clinical isolate assessed as aztreonam MIC at 8.7 uM by checkerboard assay (reference value: 64 ug/ml)

Q: With `NC[C@H]1O[C@H](O[C@H]2[C@H](OCCCCCCCCN3CCCNCCNCCCNCC3)[C@@H](O[C@H]3O[C@H](CO)[C@@H](O)[C@H](N)[C@H]3O)[C@H](N)C[C@@H]2N)[C@H](N)C[C@@H]1O.O=C(O)C(F)(F)F.O=C(O)C(F)(F)F.O=C(O)C(F)(F)F.O=C(O)C(F)(F)F.O=C(O)C(F)(F)F.O=C(O)C(F)(F)F.O=C(O)C(F)(F)F.O=C(O)C(F)(F)F.O=C(O)C(F)(F)F` as the molecule, how does the MIC (Pseudomonas aeruginosa [1]) read?
A: 64 µg/mL

Q: What about the MIC (Pseudomonas aeruginosa [2]) of the same molecule?
A: 16 µg/mL

Q: And the MIC (Pseudomonas aeruginosa [3])?
A: 0.06 µg/mL

Q: What about the MIC (Pseudomonas aeruginosa [4]) of the same molecule?
A: 16 µg/mL

Q: And the MIC (Pseudomonas aeruginosa [5])?
A: 8 µg/mL

Q: And the MIC (Pseudomonas aeruginosa [6])?
A: 0.06 µg/mL

Q: And the MIC (Pseudomonas aeruginosa [7])?
A: 8 µg/mL

Q: And the MIC (Pseudomonas aeruginosa [8])?
A: 8 µg/mL

Q: What about the MIC (Pseudomonas aeruginosa [9]) of the same molecule?
A: 16 µg/mL

Q: What about the MIC (Pseudomonas aeruginosa [10]) of the same molecule?
A: 2 µg/mL

Q: What about the MIC (Pseudomonas aeruginosa [11]) of the same molecule?
A: 8 µg/mL

Q: And the MIC (Pseudomonas aeruginosa [12])?
A: 16 µg/mL
